Source: patent publication US20240246972A1, “AZAINDOLE ROCK INHIBITORS” (priority 2022, published 2024)
Values after ≈ are worked out from the molar mass of the structure shown. One block for each compound: values may come before it.

What was measured:
PRKX = PRKX (Homo sapiens (Human), UniProt P51817); test: PRKX inhibition assay (HotSpot kit, 33P-ATP); type: biochemical; conditions: Table 2B; 10 μM ATP; Compound 1 is geometric mean of multiple experiments
Description: (§1) Compounds as a powder were dissolved in dimethyl sulfoxide to make a 10 mM stock. […] The HotSpot kit employing ^33P-ATP was used with reactions conducted at 10 μM ATP for each tested enzyme. The percent activity relative to DMSO controls for each concentration was then fitted to a curve using GraphPad Prism to determine the IC50. […] Each experiment was run in the same lab with this procedure.

ROCK2 = ROCK2 (Homo sapiens (Human), UniProt O75116); test: ROCK2 inhibition assay (HotSpot kit, 33P-ATP); type: biochemical; conditions: 10 μM ATP
ROCK1 = ROCK1 (Homo sapiens (Human), UniProt Q13464); test: ROCK1 inhibition assay (HotSpot kit, 33P-ATP); type: biochemical; conditions: 10 μM ATP
[1] = mouse, in vivo, po, 20 mg/kg
[2] = Kinetic solubility in PBS pH 7.4; type: physicochemical; conditions: aqueous buffer, kinetic from dmso stock, PBS pH 7.4, 25° C.
Description: The assay was performed in duplicate.

[3] = 24 hour rat pharmacokinetics; type: in vivo, Sprague-dawley rats; conditions: male
[4] = 24 hour mouse pharmacokinetics; type: in vivo, B6SJLF1/J mice; conditions: for AUC(0-inf) / AUC(0-t) / Cmax / half-life / Tmax: B6SJLF1/J, plasma
Description: Groups 2, 3, 4, 6, and 8: Test article was dissolved in a minimal amount of DMSO (Groups 2, 4, 6, 8: 40-50 μL, Group 3: 100 μL), 0.5% methylcellulose was added to final volume, then solution was sonicated for 2 minutes.
Group 7: Test article was dissolved in 100 μL DMSO, saline was added to final volume, then solution was sonicated for 2 minutes.
Groups 1, 5: The test article was administered as a single dose via slow bolus intravenous administration into a lateral tail vein, with a 27G needle.
Groups 2, 4, 6, 7, 8: The test article was administered as a single dose directly to the stomach by oral gavage.
Group 3: The test article was administered as a single dose in two parts with an approximate 1-2-minute rest between due to volume administered.
Approximately 150 μL of blood was collected by tail nick for the first time point and then the maximal volume by cardiac stick for the second, terminal time point in each mouse. The plasma was spun and separated within 30 minutes of collection and stored frozen at −20° C. until shipment.
Prior to the terminal blood collection, CSF was collected. […] The resulting data is shown in Tables 13, 14, 15, 16 and 17 below.

P-gp (MDR1) [5] = test: MDCK-MDR1 efflux assay, Experimental Procedure 2; type: in vitro ADME; conditions: dog, Table 3B, pH 7.4
P-gp (MDR1) [6] = test: MDCK-MDR1 efflux assay, Experimental Procedure 1; type: in vitro ADME; conditions: dog, Table 3A, pH 7.4
Description: MDCK-MDR1 cells grown in tissue culture flasks were trypsinized, suspended in medium, and the suspensions were applied to wells of a Millipore 96 well plate. The cells were allowed to grow and differentiate for five days, feeding at 2-day intervals. For Apical to Basolateral (A→B) permeability, the test article was added to the apical (A) side and amount of permeation was determined on the basolateral (B) side; for Basolateral to Apical (B→A) permeability, the test article was added to the B side and the amount of permeation was determined on the A side. […] Following centrifugation, the supernatant for donor and receiver side samples were analyzed by LC-MS/MS. Data was expressed as permeability (Papp):Papp=(dQ/dt)/(C0A) where dQ/dt is rate of permeation, C0 is initial concentration of test article, and A is the area of monolayer. In bidirectional permeability studies, the Efflux Ratio (Re) was calculated: [formula]

PKA = PKA (Homo sapiens (Human), UniProt P17612); test: PKA inhibition assay (HotSpot kit, 33P-ATP); type: biochemical; conditions: Table 2B; 10 μM ATP; Compound 1 is geometric mean of multiple experiments
Description: as §1

[7] = Table 2B, Compound 1 is geometric mean of multiple experiments
[8] = Sprague-Dawley, in vivo, IV 3 mg/kg
[9] = Sprague-Dawley, in vivo, PO 10 mg/kg

ROCK2, sequence (O75116 whole entry): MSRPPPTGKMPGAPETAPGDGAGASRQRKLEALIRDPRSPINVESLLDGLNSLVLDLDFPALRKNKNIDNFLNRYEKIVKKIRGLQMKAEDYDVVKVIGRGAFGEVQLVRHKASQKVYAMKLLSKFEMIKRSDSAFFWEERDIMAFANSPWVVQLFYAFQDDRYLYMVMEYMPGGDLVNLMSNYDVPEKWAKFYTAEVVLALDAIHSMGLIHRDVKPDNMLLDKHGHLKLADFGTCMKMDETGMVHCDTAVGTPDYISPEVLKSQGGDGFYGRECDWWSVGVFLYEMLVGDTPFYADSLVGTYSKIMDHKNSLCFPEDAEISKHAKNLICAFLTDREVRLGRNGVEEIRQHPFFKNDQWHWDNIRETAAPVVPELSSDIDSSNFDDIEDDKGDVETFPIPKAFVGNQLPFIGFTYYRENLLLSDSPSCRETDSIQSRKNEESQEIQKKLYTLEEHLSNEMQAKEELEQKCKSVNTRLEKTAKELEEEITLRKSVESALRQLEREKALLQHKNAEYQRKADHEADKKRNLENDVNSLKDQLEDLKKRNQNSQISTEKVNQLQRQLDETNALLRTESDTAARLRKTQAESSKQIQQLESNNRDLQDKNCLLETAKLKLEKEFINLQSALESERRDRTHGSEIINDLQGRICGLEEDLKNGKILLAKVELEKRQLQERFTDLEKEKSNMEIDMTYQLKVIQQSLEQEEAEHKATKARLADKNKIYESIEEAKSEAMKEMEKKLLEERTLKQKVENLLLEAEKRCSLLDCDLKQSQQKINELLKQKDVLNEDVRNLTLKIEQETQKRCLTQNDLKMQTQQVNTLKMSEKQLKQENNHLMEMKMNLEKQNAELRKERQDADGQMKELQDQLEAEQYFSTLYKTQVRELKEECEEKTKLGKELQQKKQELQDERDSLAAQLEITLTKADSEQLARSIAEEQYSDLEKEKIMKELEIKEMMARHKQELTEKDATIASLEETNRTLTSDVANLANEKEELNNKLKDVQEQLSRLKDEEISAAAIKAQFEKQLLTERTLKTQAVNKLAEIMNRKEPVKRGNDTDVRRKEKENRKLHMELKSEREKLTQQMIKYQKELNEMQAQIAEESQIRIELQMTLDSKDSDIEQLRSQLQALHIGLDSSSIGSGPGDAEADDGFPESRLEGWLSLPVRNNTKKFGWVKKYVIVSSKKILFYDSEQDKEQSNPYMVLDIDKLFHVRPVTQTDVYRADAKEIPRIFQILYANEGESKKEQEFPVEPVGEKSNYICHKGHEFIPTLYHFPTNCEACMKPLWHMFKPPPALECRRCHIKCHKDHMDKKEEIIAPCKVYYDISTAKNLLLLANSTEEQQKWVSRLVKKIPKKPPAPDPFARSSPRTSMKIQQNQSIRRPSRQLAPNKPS
PRKX, sequence (P51817 whole entry): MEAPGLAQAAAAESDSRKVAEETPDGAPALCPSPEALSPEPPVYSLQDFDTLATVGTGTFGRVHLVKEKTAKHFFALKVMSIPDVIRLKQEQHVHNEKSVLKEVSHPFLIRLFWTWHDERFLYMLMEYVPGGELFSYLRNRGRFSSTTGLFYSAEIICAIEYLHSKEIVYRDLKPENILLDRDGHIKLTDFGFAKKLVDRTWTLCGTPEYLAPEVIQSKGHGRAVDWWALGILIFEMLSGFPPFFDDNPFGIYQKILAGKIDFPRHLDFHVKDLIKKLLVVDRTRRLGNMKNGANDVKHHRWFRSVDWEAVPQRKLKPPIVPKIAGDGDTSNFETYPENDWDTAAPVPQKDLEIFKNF
ROCK1, sequence (Q13464 whole entry): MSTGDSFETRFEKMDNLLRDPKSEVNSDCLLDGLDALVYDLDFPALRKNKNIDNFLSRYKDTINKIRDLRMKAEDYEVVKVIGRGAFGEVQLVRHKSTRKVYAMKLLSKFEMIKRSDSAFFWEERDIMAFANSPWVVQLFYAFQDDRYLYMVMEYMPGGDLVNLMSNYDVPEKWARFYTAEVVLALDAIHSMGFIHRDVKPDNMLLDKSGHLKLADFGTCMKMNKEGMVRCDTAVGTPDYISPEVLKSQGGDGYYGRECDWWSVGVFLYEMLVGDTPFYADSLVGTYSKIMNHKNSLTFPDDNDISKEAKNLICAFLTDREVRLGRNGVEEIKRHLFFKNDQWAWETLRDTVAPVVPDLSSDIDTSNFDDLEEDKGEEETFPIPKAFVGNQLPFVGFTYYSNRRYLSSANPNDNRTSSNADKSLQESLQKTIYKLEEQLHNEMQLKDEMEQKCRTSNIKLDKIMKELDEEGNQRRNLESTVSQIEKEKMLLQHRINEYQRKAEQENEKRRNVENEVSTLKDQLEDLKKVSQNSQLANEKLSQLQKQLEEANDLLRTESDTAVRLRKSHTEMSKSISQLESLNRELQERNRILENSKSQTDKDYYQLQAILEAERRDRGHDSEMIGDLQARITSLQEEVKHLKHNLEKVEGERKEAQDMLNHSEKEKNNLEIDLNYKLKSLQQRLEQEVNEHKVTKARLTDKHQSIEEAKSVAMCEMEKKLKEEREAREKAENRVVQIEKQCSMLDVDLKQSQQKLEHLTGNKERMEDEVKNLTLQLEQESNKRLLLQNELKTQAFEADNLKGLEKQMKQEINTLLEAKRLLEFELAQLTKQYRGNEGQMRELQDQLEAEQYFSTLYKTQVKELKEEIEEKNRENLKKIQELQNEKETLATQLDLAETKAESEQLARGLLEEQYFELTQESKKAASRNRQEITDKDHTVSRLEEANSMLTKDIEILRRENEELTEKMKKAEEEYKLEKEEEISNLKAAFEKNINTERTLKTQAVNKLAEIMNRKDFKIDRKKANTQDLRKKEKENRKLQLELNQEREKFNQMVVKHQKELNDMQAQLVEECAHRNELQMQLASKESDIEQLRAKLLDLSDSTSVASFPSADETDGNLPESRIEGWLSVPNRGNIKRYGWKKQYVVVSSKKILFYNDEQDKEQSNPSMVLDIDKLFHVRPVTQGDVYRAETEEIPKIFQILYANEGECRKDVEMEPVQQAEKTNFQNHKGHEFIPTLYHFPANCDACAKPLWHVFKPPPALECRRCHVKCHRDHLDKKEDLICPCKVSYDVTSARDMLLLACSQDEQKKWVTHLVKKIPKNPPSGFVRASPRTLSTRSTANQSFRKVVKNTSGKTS

solubility kinetic at 2 h [2]: 13.3 µM (≈ 4.19 µg/mL)
Compound: CC(=O)[C@H]1CC[C@H]2[C@@H]3CCC4=CC(=O)CC[C@]4(C)[C@H]3CC[C@]12C [Progesterone, reference compound]

efflux ratio at 2 h (P-gp (MDR1) [6]): 28.4
Compound: C[C@H]1O[C@@H](O[C@H]2[C@@H](O)C[C@H](O[C@H]3[C@@H](O)C[C@H](O[C@H]4CC[C@@]5(C)[C@H](CC[C@@H]6[C@@H]5C[C@@H](O)[C@]5(C)[C@@H](C7=CC(=O)OC7)CC[C@]65O)C4)O[C@@H]3C)O[C@@H]2C)C[C@H](O)[C@@H]1O [Digoxin, reference compound]

Further lines, the compound ahead of its results:

Compound: COc1cccc(CNC(=O)c2cc3ccc(-c4cn[nH]c4)nc3[nH]2)c1 [Comparator 6, N-(3-methoxybenzyl)-6-(1H-pyrazol-4-yl)-1H-pyrrolo[2,3-b]pyridine-2-carboxamide, reference compound]
IC50 (PRKX): 165 nM
IC50 (ROCK2; [7]): 0.96 nM
IC50 (ROCK1; [7]): 10.2 nM

Compound: O=C(NCc1ccccc1F)c1cc2ccc(-c3cn[nH]c3C(F)(F)F)nc2[nH]1 [Compound 11, N-[(2-Fluorophenyl)methyl]-6-[3-(trifluoromethyl)-2H-pyrazol-4-yl]-1H-pyrrolo[2,3-b]pyridine-2-carboxamide]
IC50 (ROCK2; [7]): 1370 nM
IC50 (ROCK1; [7]): > 1000 nM

Compound: Cn1c(C(=O)NCc2ccccc2F)cc2ccc(-c3cn[nH]c3)nc21 [Compound 1, N-(2-fluorobenzyl)-1-methyl-6-(1H-pyrazol-4-yl)-1H-pyrrolo[2,3-b]pyridine-2-carboxamide]
mortality and adverse events [1]: no animals died or had adverse events
plasma level in 24 hours [1]: below the detection limit
IC50 (PRKX): 31.4 nM
IC50 (ROCK2; Table 2A): 2.3 nM
IC50 (ROCK2; [7]): 2.7 nM
solubility kinetic at 2 h [2]: 0.64 µM (≈ 0.224 µg/mL)
AUC0-t/D ([3]; IV 3 mg/kg): 1541 (h*ng/mL)/(mg/kg)
Tlast ([3]; IV 3 mg/kg): 24 h
AUC0-t/D ([3]; PO 10 mg/kg): 261 (h*ng/mL)/(mg/kg)
Tlast ([3]; PO 10 mg/kg): 24 h
AUC(0-inf) [3, 8]: 4650 ng·h/mL
AUC(0-t) [3, 8]: 4620 ng·h/mL
Cmax [3, 8]: 5540 ng/mL
half-life [3, 8]: 5.33 h
AUC(0-t) [3, 9]: 2610 ng·h/mL
Cmax [3, 9]: 409 ng/mL
Tmax [3, 9]: 2.67 h
half-life [3, 9]: 3.67 h
AUC(0-inf) ([3]; Sprague-Dawley, plasma, PO 10 mg/kg): 2660 ng·h/mL
AUC(0-inf) ([4]; IV 3 mg/kg, male): 10200 ng·h/mL
AUC(0-t) ([4]; IV 3 mg/kg, male): 10100 ng·h/mL
Cmax ([4]; IV 3 mg/kg, male): 12200 ng/mL
half-life ([4]; IV 3 mg/kg, male): 0.987 h
AUC(0-t) ([4]; PO 10 mg/kg, female): 5670 ng·h/mL
Cmax ([4]; PO 10 mg/kg, female): 1110 ng/mL
Tmax ([4]; PO 10 mg/kg, female): 1 h
AUC(0-inf) ([4]; PO 10 mg/kg, male): 5750 ng·h/mL
AUC(0-t) ([4]; PO 10 mg/kg, male): 5350 ng·h/mL
Cmax ([4]; PO 10 mg/kg, male): 1040 ng/mL
Tmax ([4]; PO 10 mg/kg, male): 1 h
half-life ([4]; PO 10 mg/kg, male): 2.72 h
AUC(0-inf) ([4]; PO 100 mg/kg, male): 46000 ng·h/mL
AUC(0-t) ([4]; PO 100 mg/kg, male): 44100 ng·h/mL
Cmax ([4]; PO 100 mg/kg, male): 4070 ng/mL
Tmax ([4]; PO 100 mg/kg, male): 8 h
half-life ([4]; PO 100 mg/kg, male): 4.47 h
AUC0-t/D ([4]; IV 3 mg/kg, male): 3380 (h*ng/mL)/(mg/kg)
Tlast ([4]; IV 3 mg/kg, male): 8 h
AUC0-t/D ([4]; PO 10 mg/kg, female): 567 (h*ng/mL)/(mg/kg)
Tlast ([4]; PO 10 mg/kg, female): 24 h
AUC0-t/D ([4]; PO 10 mg/kg, male): 535 (h*ng/mL)/(mg/kg)
Tlast ([4]; PO 10 mg/kg, male): 12 h
Ratio to 10 mg/kg Dose Level, AUC0-t ([4]; PO 100 mg/kg vs 10 mg/kg, male): 8.24
Ratio to 10 mg/kg Dose Level, AUC0-∞ ([4]; PO 100 mg/kg vs 10 mg/kg, male): 8.00
Ratio to 10 mg/kg Dose Level, Cmax ([4]; PO 100 mg/kg vs 10 mg/kg, male): 3.91
AUC0-t/D ([4]; PO 100 mg/kg, male): 441 (h*ng/mL)/(mg/kg)
Tlast ([4]; PO 100 mg/kg, male): 24 h
IC50 (ROCK1; Table 2A): 16.4 nM
IC50 (ROCK1; [7]): 30.3 nM
efflux ratio at 2 h, 1 µM (P-gp (MDR1) [5]): 0.8
efflux ratio at 2 h (P-gp (MDR1) [6]): 1.46
IC50 (PKA): 238 nM

Compound: Cc1[nH]ncc1-c1ccc2cc(C(=O)NCc3c(Cl)cccc3C3(O)CC3)[nH]c2n1 [Compound 6, N-(2-chloro-6-(1-hydroxycyclopropyl)benzyl)-6-(5-methyl-1H-pyrazol-4-yl)-1H-pyrrolo[2,3-b]pyridine-2-carboxamide]
efflux ratio at 2 h (P-gp (MDR1) [6]): 133

Compound: Cc1[nH]ncc1-c1ccc2cc(C(=O)NCc3c(Cl)cccc3OC3COC3)[nH]c2n1 [Comparator 3, N-(2-chloro-6-(oxetan-3-yloxy)benzyl)-6-(5-methyl-1H-pyrazol-4-yl)-1H-pyrrolo[2,3-b]pyridine-2-carboxamide, reference compound]
IC50 (PRKX): 376 nM
IC50 (ROCK2; Table 2A): 587 nM
IC50 (ROCK1; Table 2A): > 1000 nM
efflux ratio at 2 h (P-gp (MDR1) [6]): 256
IC50 (PKA): 1400 nM
